Data on one compound can be found in patent EP2628734A2, “5-AMINO-1,2,4-THIADIAZOLE DERIVATIVES” (Federalnoe Gosudarstvennoe Bydzhetnoe Uchrezhdenie Nauki …, priority 2010, dated 2012).

As usually defined, the pIC50 is −log10 of the IC50, conventionally taken in molar units. Low values mean a large IC50, high ones a small IC50. As usually defined, the inhibition is how much of the control response was suppressed.

The structures appear in SMILES notation. pIC50: −log10 of the molar value.

The subject of this experiment is P2 synaptosomal fraction from rat brain cortex. Briefly: glutamate-induced uptake of 45Ca2+ isotope into synaptosomes. Type of experiment: cell-based. The source says:
Neuroprotective action of new compounds was studied in P2 synaptosomal fraction from rat brain cortex. 5-amino-3-(2-nitroxypropyl)-1,2,4-thiadiazole derivatives were studied in the test on glutamate-induced uptake of ^45Ca^2+ isotope into synaptosomes.

In turn, `CC(Cc1nsc(N2CCN(c3ccccn3)CC2)n1)O[N+](=O)[O-]` (centres unmarked) [1-[3-(2-Nitroxypropyl)-[1,2,4]-thiadiazol-5-yl]-4-pyridin-2-yl-piperazine] gave a pIC50 (glutamate-induced uptake of ^45Ca^2+ into synaptosomes) of 4.78. The inhibition at 100 µM (glutamate-induced uptake, concentration of 100 µM, read-out: inhibition of the uptake of ^45Ca^2+ into synaptosomes vs. a control) was 98%.
